According to BindingDB's records for patent US12415816 (Dana-Farber Cancer Institute, 2025):

Target: Tyrosine-protein kinase JAK2 (Homo sapiens, UniProt O60674)
Test: Biochemical Assay
Method: The JAK2 Z-Lyte biochemical assay was performed according to manufacturer's instructions (Life Technologies).

Tyrosine-protein kinase JAK2, sequence (O60674 whole entry): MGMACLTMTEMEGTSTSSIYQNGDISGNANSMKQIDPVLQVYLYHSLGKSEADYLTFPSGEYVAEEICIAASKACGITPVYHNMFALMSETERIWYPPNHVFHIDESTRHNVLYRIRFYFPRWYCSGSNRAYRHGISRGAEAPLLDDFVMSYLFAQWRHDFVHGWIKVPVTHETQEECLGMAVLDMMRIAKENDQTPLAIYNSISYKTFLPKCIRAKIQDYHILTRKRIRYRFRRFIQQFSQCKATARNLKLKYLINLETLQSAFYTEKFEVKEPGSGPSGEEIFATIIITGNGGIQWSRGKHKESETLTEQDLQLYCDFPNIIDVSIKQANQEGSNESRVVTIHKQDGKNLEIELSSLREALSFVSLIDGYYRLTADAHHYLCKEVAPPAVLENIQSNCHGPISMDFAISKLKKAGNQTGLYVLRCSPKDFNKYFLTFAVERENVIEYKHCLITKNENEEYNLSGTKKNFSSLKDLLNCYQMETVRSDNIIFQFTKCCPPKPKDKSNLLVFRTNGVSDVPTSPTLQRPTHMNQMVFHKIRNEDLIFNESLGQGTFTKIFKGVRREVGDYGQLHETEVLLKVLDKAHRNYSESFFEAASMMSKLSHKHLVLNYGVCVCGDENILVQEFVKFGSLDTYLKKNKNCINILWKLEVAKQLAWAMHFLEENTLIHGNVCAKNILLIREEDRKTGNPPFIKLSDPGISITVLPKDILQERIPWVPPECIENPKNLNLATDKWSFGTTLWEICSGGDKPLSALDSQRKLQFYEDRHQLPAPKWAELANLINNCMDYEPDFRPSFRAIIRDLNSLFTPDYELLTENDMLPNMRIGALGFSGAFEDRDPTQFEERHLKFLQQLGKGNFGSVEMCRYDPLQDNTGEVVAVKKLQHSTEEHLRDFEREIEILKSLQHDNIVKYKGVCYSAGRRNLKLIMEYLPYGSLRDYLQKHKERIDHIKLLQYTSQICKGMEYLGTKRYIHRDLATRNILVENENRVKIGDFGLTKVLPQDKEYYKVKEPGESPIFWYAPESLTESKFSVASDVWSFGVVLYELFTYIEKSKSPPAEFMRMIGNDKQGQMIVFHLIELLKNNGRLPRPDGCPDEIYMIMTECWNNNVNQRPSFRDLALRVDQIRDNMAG

SMILES: CCN1CCN(Cc2cc(NC(=O)Nc3ccc(C)c(Oc4ccc5nc(NC(=O)C6CC6)sc5n4)c3)cc(C(F)(F)F)c2)CC1 [US12415816, Compound I-18]
- IC50: 1450 nM
